Active and inactive are the calls of the source. No rule for the calls is given here.

This data set deals with CCRIS mutagenicity, Ames/micronucleus/aberration tests. Put plainly: CCRIS mutagenicity studies.
Where [1] appears, read: Test System: AMES SALMONELLA TYPHIMURIUM, Strain/Indicator: TA98, Metabolic Activation: NONE, Method: PREINCUBATION
[2] abbreviates: Test System: AMES SALMONELLA TYPHIMURIUM, Strain/Indicator: TA100, Metabolic Activation: NONE, Method: PREINCUBATION

As to `CCNc1cc(O)ccc1C`, the mutagenic call is, setting by setting: (Test System: AMES SALMONELLA TYPHIMURIUM, Strain/Indicator: TA97, Metabolic Activation: HAMSTER, LIVER, S-9, AROCLOR 1254 (10%), Method: PREINCUBATION) “inactive; negative”; (Test System: AMES SALMONELLA TYPHIMURIUM, Strain/Indicator: TA97, Metabolic Activation: NONE, Method: PREINCUBATION) “inactive; negative”; (Test System: AMES SALMONELLA TYPHIMURIUM, Strain/Indicator: TA97, Metabolic Activation: RAT, LIVER, S-9, AROCLOR 1254 (10%), Method: PREINCUBATION) “inactive; negative”; (Test System: AMES SALMONELLA TYPHIMURIUM, Strain/Indicator: TA98, Metabolic Activation: HAMSTER, LIVER, S-9, AROCLOR 1254 (10%), Method: PREINCUBATION) “active; positive”; under setting [1], “inactive; negative”; (Test System: AMES SALMONELLA TYPHIMURIUM, Strain/Indicator: TA98, Metabolic Activation: RAT, LIVER, S-9, AROCLOR 1254 (10%), Method: PREINCUBATION) “active; positive”. The mutagenic call runs as follows: (Test System: AMES SALMONELLA TYPHIMURIUM, Strain/Indicator: TA100, Metabolic Activation: HAMSTER, LIVER, S-9, AROCLOR 1254 (10%), Method: PREINCUBATION) “active; positive”; under setting [2], “inactive; negative”; (Test System: AMES SALMONELLA TYPHIMURIUM, Strain/Indicator: TA100, Metabolic Activation: RAT, LIVER, S-9, AROCLOR 1254 (10%), Method: PREINCUBATION) “inactive; negative”; (Test System: AMES SALMONELLA TYPHIMURIUM, Strain/Indicator: TA1535, Metabolic Activation: HAMSTER, LIVER, S-9, AROCLOR 1254 (10%), Method: PREINCUBATION) “inactive; negative”; (Test System: AMES SALMONELLA TYPHIMURIUM, Strain/Indicator: TA1535, Metabolic Activation: NONE, Method: PREINCUBATION) “inactive; negative”; (Test System: AMES SALMONELLA TYPHIMURIUM, Strain/Indicator: TA1535, Metabolic Activation: RAT, LIVER, S-9, AROCLOR 1254 (10%), Method: PREINCUBATION) “inactive; negative”.
For `CCOCCc1c(-c2ccccc2)nc(N)n2ncnc12`, the mutagenic call (Test System: AMES SALMONELLA TYPHIMURIUM, Strain/Indicator: TA98, Metabolic Activation: NONE, Method: STANDARD PLATE) is “inactive; negative”; the mutagenic call (Test System: AMES SALMONELLA TYPHIMURIUM, Strain/Indicator: TA98, Metabolic Activation: RAT, LIVER, S-9, AROCLOR 1254, Method: STANDARD PLATE) was “inactive; negative”; the mutagenic call (Test System: AMES SALMONELLA TYPHIMURIUM, Strain/Indicator: TA100, Metabolic Activation: NONE, Method: STANDARD PLATE) is “inactive; negative”; the mutagenic call (Test System: AMES SALMONELLA TYPHIMURIUM, Strain/Indicator: TA100, Metabolic Activation: RAT, LIVER, S-9, AROCLOR 1254, Method: STANDARD PLATE) was “inactive; negative”; the mutagenic call (Test System: AMES SALMONELLA TYPHIMURIUM, Strain/Indicator: TA1535, Metabolic Activation: NONE, Method: STANDARD PLATE) was “inactive; negative”; the mutagenic call (Test System: AMES SALMONELLA TYPHIMURIUM, Strain/Indicator: TA1535, Metabolic Activation: RAT, LIVER, S-9, AROCLOR 1254, Method: STANDARD PLATE) is “inactive; negative”. For the same compound, the mutagenic call (Test System: AMES SALMONELLA TYPHIMURIUM, Strain/Indicator: TA1537, Metabolic Activation: NONE, Method: STANDARD PLATE) is “inactive; negative”; the mutagenic call (Test System: AMES SALMONELLA TYPHIMURIUM, Strain/Indicator: TA1537, Metabolic Activation: RAT, LIVER, S-9, AROCLOR 1254, Method: STANDARD PLATE) is “inactive; negative”; the mutagenic call (Test System: AMES SALMONELLA TYPHIMURIUM, Strain/Indicator: TA1538, Metabolic Activation: NONE, Method: STANDARD PLATE) is “inactive; negative”; the mutagenic call (Test System: AMES SALMONELLA TYPHIMURIUM, Strain/Indicator: TA1538, Metabolic Activation: RAT, LIVER, S-9, AROCLOR 1254, Method: STANDARD PLATE) was “inactive; negative”; the mutagenic call (Test System: CHINESE HAMSTER OVARY, Strain/Indicator: CHO-K1-BH4 (HGPRT)/6-THIOGUANINE, Metabolic Activation: NONE) was “inactive; negative”; the mutagenic call (Test System: CHINESE HAMSTER OVARY, Strain/Indicator: CHO-K1-BH4 (HGPRT)/6-THIOGUANINE, Metabolic Activation: RAT, LIVER, S-9, AROCLOR 1254) is “inactive; negative”. Moreover, the mutagenic call is, setting by setting: (Test System: MOUSE LYMPHOMA, Strain/Indicator: L5178Y (TK+/TK-), Metabolic Activation: NONE, Method: SUSPENSION/PLATE) “inactive; negative”; (Test System: MOUSE LYMPHOMA, Strain/Indicator: L5178Y (TK+/TK-), Metabolic Activation: RAT, LIVER, S-9, AROCLOR 1254, Method: SUSPENSION/PLATE) “inactive; negative”; (Test System: UDS RAT PRIMARY HEPATOCYTES, Strain/Indicator: THY INCORP, Metabolic Activation: NONE, Method: AUTORADIOGRAPHY) “inactive; negative”.
As for `Fc1cnc2ccccc2c1`, the mutagenic call by setting is: (End Point: In vitro Chromosomal aberrations, Test System: Chinese hamster lung fibroblast cells (CHL/IU), Metabolic Activation: Rat, liver, S-9) “active; positive (information derived from a figure)”; (End Point: In vitro Micronucleus, Test System: Chinese hamster lung fibroblast cells (CHL/IU), Metabolic Activation: Rat, liver, S-9) “active; positive (information derived from a figure)”; (Test System: AMES SALMONELLA TYPHIMURIUM, Strain/Indicator: TA100, Metabolic Activation: RAT LIVER S-9, PHENOBARBITAL AND 5,6-BENZOFLAVONE, Method: PREINCUBATION) “inactive; negative”; (Test System: AMES SALMONELLA TYPHIMURIUM, Strain/Indicator: TA100, Metabolic Activation: RAT, LIVER, S-9, AROCLOR 1254, Method: PREINCUBATION) “inactive; negative”; (Test System: AMES SALMONELLA TYPHIMURIUM, Strain/Indicator: TA100, Metabolic Activation: RAT, LIVER, S-9, PHENOBARBITAL AND 5,6-BENZOFLAVONE, Method: PREINCUBATION) “inactive; negative”; (Test System: AMES SALMONELLA TYPHIMURIUM, Strain/Indicator: TA100, Metabolic Activation: RAT, LIVER, S-9, PHENOBARBITAL AND 5,6-NAPHTHOFLAVONE, Method: PREINCUBATION) “inactive; negative”. Also, the mutagenic call (Test System: AMES SALMONELLA, Strain/Indicator: TA100, Metabolic Activation: RAT, LIVER, S-9, PHENOBARBITAL AND 5,6-BENZOFLAVONE, Method: PREINCUBATION) was “inactive; negative” and the mutagenic call (Test System: UDS RODENT HEPATOCYTES, Strain/Indicator: THY INCORP (NON-S-PHASE), Metabolic Activation: NONE, Method: AUTORADIOGRAPHY) was “inactive; negative”.
Consider `CC(O)/C=C/C=O` (configuration not stated), for which, for the setting “Test System: AMES SALMONELLA TYPHIMURIUM, Strain/Indicator: TA104, Metabolic Activation: NONE, Method: PREINCUBATION”, the mutagenic call is “active; positive”.
Consider `OC(c1ccc(Cl)cc1)(c1cncnc1)c1ccccc1Cl` (configuration not stated), for which the mutagenic call is “inactive; negative” (End Point: In vitro chromosomal aberrations, Test System: Human lymphocytes, Metabolic Activation: None); “inactive; negative” (End Point: In vitro chromosomal aberrations, Test System: Human lymphocytes, Metabolic Activation: S-9); “active; positive. statistically significant increase at 24 hr but no effects at 48 or 72” (End Point: In vivo micronucleus, Test System: Bone marrow polychromatic erythrocytes, Species: Mouse, Strain/Sex: Not specified/Male, Route: Oral); “inactive; negative” (End Point: In vivo micronucleus, Test System: Bone marrow polychromatic erythrocytes, Species: Rat, Strain/Sex: Sprague-Dawley (Male and female), Route: Oral); “inactive; negative” (Test System: Ames Salmonella typhimurium, Strain/Indicator: TA98, Metabolic Activation: None, Method: Plate incorporation); “inactive; negative” (Test System: Ames Salmonella typhimurium, Strain/Indicator: TA98, Metabolic Activation: Rat, Liver, S-9, Method: Plate incorporation). The mutagenic call by setting is: (Test System: Ames Salmonella typhimurium, Strain/Indicator: TA100, Metabolic Activation: None, Method: Plate incorporation) “inactive; negative”; (Test System: Ames Salmonella typhimurium, Strain/Indicator: TA100, Metabolic Activation: Rat, Liver, S-9, Method: Plate incorporation) “inactive; negative”; (Test System: Ames Salmonella typhimurium, Strain/Indicator: TA1535, Metabolic Activation: None, Method: Plate incorporation) “inactive; negative”; (Test System: Ames Salmonella typhimurium, Strain/Indicator: TA1535, Metabolic Activation: Rat, Liver, S-9, Method: Plate incorporation) “inactive; negative”; (Test System: Ames Salmonella typhimurium, Strain/Indicator: TA1537, Metabolic Activation: None, Method: Plate incorporation) “inactive; negative”; (Test System: Ames Salmonella typhimurium, Strain/Indicator: TA1537, Metabolic Activation: Rat, Liver, S-9, Method: Plate incorporation) “inactive; negative”. Further, the mutagenic call reads like this: (Test System: E. coli, Strain/Indicator: WP2uvrA-, Metabolic Activation: None, Method: Plate incorporation) “inactive; negative”; (Test System: E. coli, Strain/Indicator: WP2uvrA-, Metabolic Activation: Rat, Liver, S-9, Method: Plate incorporation) “inactive; negative”.
As to `CC(C)(C)C1=CC(=O)C=C(C2=CC(=O)C=C(C(C)(C)C)C2=O)C1=O`, the mutagenic call runs as follows: under setting [1], “active; positive”; under setting [2], “active; positive”.

The record behind these values is PubChem BioAssay AID1259407 (Chemical Carcinogenesis Research Information System (CCRIS), 2018).
